The numbers were not newly measured in patent US12297168B2, “Compounds useful for treating liver diseases” (ABIONYX PHARMA SA, priority 2019, dated 2025), which cites them from elsewhere.

The structures appear in SMILES notation.

The series has as its system NASH resolution without worsening of fibrosis. The settings on record: Phase 3 trial, adults with NASH and fibrosis (interim analysis, RESOLVE-IT).

For the molecule `CSc1ccc(C(=O)/C=C/c2cc(C)c(OC(C)(C)C(=O)O)c(C)c2)cc1` [elafibranor], the “effect on the primary endpoint of NASH resolution without worsening of fibrosis” value is “did not demonstrate a statistically significant effect”.
